Experimental data: US20190211020A1 (Agency for Science, Technology and Research, priority 2012, published 2019)

These compounds were tested on eIF4E Ser209 phosphorylation in Hela cells (assay: MNK cell-based assay (AlphaScreen SureFire, eIF4E Ser209 phosphorylation)). Settings: Homo sapiens; eIF4E Ser209 phosphorylation, Hela cells, 2 hours; read-out: IC50 Hela.
Excerpt: It has been reported that Ser209 of eIF4E is solely phosphorylated by the MNK enzymes. The ability of compounds to inhibit this process in Hela cells was investigated using the AlphaScreen SureFire® assay platform from Perkin Elmer (Waltham, Mass.). eIF4E phosphorylated on Ser209 is recognized by two antibodies, the first which is fused to a streptavidin coated donor bead binds to an epitope away from Ser209, the second which is fused to a protein A conjugated acceptor bead binds to phosphorylated Ser209. The phosphorylation of eIF4E on Ser209 brings the two antibodies into close proximity and when excited by a laser a singlet oxygen is released by the donor bead which excites the acceptor bead resulting in the emission of light. This enables the monitoring of eIF4E Ser209 phosphorylation and its inhibition in a cellular context.
Hela cells were seeded into microtitre plates (30,000 cells per well) in 100 μl of culture medium and incubated at 37° C. for 24 hours. The media was then removed by aspiration and the cells resuspended in 50 μl of serum free medium containing the test compound and incubated at 37° C. for 2 hours. The culture medium was again removed by aspiration and the cells resuspended in lysis buffer (provided in Perkin Elmer SureFire® Assay Kit). After agitation at 350 rpm for 20 minutes at 22° C., 4 μl was transferred to a 384 well OptiPlate™ (Perkin Elmer, Waltham, Mass.). To each well was added 5 μl of acceptor mix; the plate was sealed and agitated gently at 22° C. for 2 hours. Then, in subdued light, 2 μl of donor mix was added to each well, the plate was sealed, wrapped in aluminum foil and agitated gently at 22° C. for 2 hours. Emission was measured using the EnVision® plate reader (Perkin Elmer, Waltham, Mass.).
Inhibition constants (IC50) were determined by plotting AlphaScreen signal versus log compound concentration and fitting with a non-linear regression algorithm using GraphPad Prism (GraphPad Software Inc.).

IC50 [µM] | Compound
< 1 | CN1CCN(C(=O)c2ccc(-c3ccc4ncc(-c5ccc6[nH]cnc6c5)n4n3)cc2)CC1 [Example 87, (4-(3-(1H-benzo[d]imidazol-5-yl)imidazo[1,2-b]pyridazin-6-yl)phenyl)(4-methylpiperazin-1-yl)methanone]
< 1 | CN1CCN(C2CCN(C(=O)c3ccc(-c4ccc5ncc(-c6ccc7c(c6)CC(=O)N7)n5n4)cc3)CC2)CC1 [Example 89, 5-(6-(4-(4-(4-methylpiperazin-1-yl)piperidine-1-carbonyl)phenyl)imidazo[1,2-b]pyridazin-3-yl)indolin-2-one]
< 1 | O=C1Cc2cc(-c3cnc4ccc(-c5ccc(C(=O)N6CCC(N7CCOCC7)CC6)cc5)nn34)ccc2N1 [Example 94, 5-(6-(4-(4-morpholinopiperidine-1-carbonyl)phenyl)imidazo[1,2-b]pyridazin-3-yl)indolin-2-one]
< 1 | CN1CCN(C(=O)c2ccc(-c3ccc4ncc(-c5ccc(C#N)cc5)n4c3)cc2)CC1 [Example 95, 4-(6-(4-(4-Methylpiperazine-1-carbonyl)phenyl)imidazo[1,2-a]pyridin-3-yl)benzonitrile]
< 1 | N#Cc1ccc(-c2cnc3ccc(-c4ccc(C(=O)N5CCCOCC5)cc4)cn23)cc1 [Example 97, 4-(6-(4-(1,4-oxazepane-4-carbonyl)phenyl)imidazo [1,2-a]pyridin-3-yl)benzonitrile]
< 1 | CCN1CCN(C(=O)c2ccc(-c3ccc4ncc(-c5ccc(C#N)cc5)n4c3)cc2)CC1 [Example 98, 4-(6-(4-(4-ethylpiperazine-1-carbonyl)phenyl)imidazo [1,2-a]pyridin-3-yl)benzonitrile]
< 1 | CC(=O)NC1(C)CCN(C(=O)c2ccc(-c3ccc4ncc(-c5ccc(C#N)cc5)n4c3)cc2)CC1 [Example 99, N-(1-(4-(3-(4-cyanophenyl)imidazo[1,2-a]pyridin-6-yl)benzoyl)-4-methylpiperidin-4-yl)acetamide]
< 1 | CCN(CC)C1(C)CCN(C(=O)c2ccc(-c3ccc4ncc(-c5ccc(C#N)cc5)n4c3)cc2)CC1 [Example 100, 4-(6-(4-(4-(diethylamino)-4-methylpiperidine-1-carbonyl)phenyl)imidazo[1,2-a]pyridin-3-yl)benzonitrile]
< 1 | CN(CC(=O)N1CCOCC1)C(=O)c1ccc(-c2ccc3ncc(-c4ccc(C#N)cc4)n3c2)cc1 [Example 101, 4-(3-(4-cyanophenyl)imidazo[1,2-a]pyridin-6-yl)-N-methyl-N-(2-morpholino-2-oxoethyl)benzamide]
< 1 | N#Cc1ccc(-c2cnc3ccc(-c4ccc(C(=O)N5CCNC(=O)C5)cc4)cn23)cc1 [Example 102, 4-(6-(4-(3-oxopiperazine-1-carbonyl)phenyl)imidazo[1,2-a]pyridin-3-yl)benzonitrile]
< 1 | CN1CCCN(C(=O)c2ccc(-c3ccc4ncc(-c5ccc(C#N)cc5)n4c3)cc2)CC1 [Example 103, 4-(6-(4-(4-methyl-1,4-diazepane-1-carbonyl)phenyl)imidazo[1,2-a]pyridin-3-yl)benzonitrile]
< 1 | CN1CCC(C2CCN(C(=O)c3ccc(-c4ccc5ncc(-c6ccc(C#N)cc6)n5c4)cc3)CC2)CC1 [Example 105, 4-(6-(4-(1′-methyl-4,4′-bipiperidine-1-carbonyl)phenyl)imidazo[1,2-a]pyridin-3-yl)benzonitrile]
< 1 | CC1(O)CCN(C(=O)c2ccc(-c3ccc4ncc(-c5ccc(C#N)cc5)n4c3)cc2)CC1 [Example 106, 4-(6-(4-(4-hydroxy-4-methylpiperidine-1-carbonyl)phenyl)imidazo[1,2-a]pyridin-3-yl)benzonitrile]
< 1 | N#Cc1ccc(-c2cnc3ccc(-c4ccc(C(=O)N5CCCNCC5)cc4)cn23)cc1 [Example 107, 4-(6-(4-(1,4-diazepane-1-carbonyl)phenyl)imidazo [1,2-a]pyridin-3-yl)benzonitrile]
< 1 | N#Cc1ccc(-c2cnc3ccc(-c4ccc(C(=O)N5CCC(N)CC5)cc4)cn23)cc1 [Example 109, 4-(6-(4-(4-aminopiperidine-1-carbonyl)phenyl)imidazo[1,2-a]pyridin-3-yl)benzonitrile]
< 1 | CS(=O)(=O)NC1CCN(C(=O)c2ccc(-c3ccc4ncc(-c5ccc(C#N)cc5)n4c3)cc2)CC1 [Example 111, N-(1-(4-(3-(4-cyanophenyl)imidazo[1,2-a]pyridin-6-yl)benzoyl)piperidin-4-yl)methanesulfonamide]
< 1 | CN(C)C1CCN(C(=O)c2ccc(-c3ccc4ncc(-c5ccc(C#N)cc5)n4c3)cc2)CC1 [Example 112, 4-(6-(4-(4-(dimethylamino)piperidine-1-carbonyl)phenyl)imidazo[1,2-a]pyridin-3-yl)benzonitrile]
< 1 | CCC1(N)CCN(C(=O)c2ccc(-c3ccc4ncc(-c5ccc(C#N)cc5)n4c3)cc2)CC1 [Example 113, 4-(6-(4-(4-amino-4-ethylpiperidine-1-carbonyl)phenyl)imidazo [1,2-a]pyridin-3-yl)benzonitrile]
< 1 | N#Cc1ccc(-c2cnc3ccc(-c4ccc(C(=O)NCC(=O)N5CCOCC5)cc4)cn23)cc1 [Example 115, 4-(3-(4-cyanophenyl)imidazo[1,2-a]pyridin-6-yl)-N-(2-morpholino-2-oxoethyl)benzamide]
< 1 | N#Cc1ccc(-c2cnc3ccc(-c4ccc(C(=O)NCCN5CCOCC5)cc4)cn23)cc1 [Example 116, 4-(3-(4-cyanophenyl)imidazo[1,2-a]pyridin-6-yl)-N-(2-morpholinoethyl)benzamide]
< 1 | N#Cc1ccc(-c2cnc3ccc(-c4ccc(C(=O)N5CCC6(CCCCN6)CC5)cc4)cn23)cc1 [Example 117, 4-(6-(4-(1,9-diazaspiro[5.5]undecane-9-carbonyl)phenyl)imidazo[1,2-a]pyridin-3-yl)benzonitrile]
< 1 | CC(=O)N1CCCCC12CCN(C(=O)c1ccc(-c3ccc4ncc(-c5ccc(C#N)cc5)n4c3)cc1)CC2 [Example 118, 4-(6-(4-(1-acetyl-1,9-diazaspiro[5.5]undecane-9-carbonyl)phenyl)imidazo[1,2-a]pyridin-3-yl)benzonitrile]
< 1 | CN1CCCCC12CCN(C(=O)c1ccc(-c3ccc4ncc(-c5ccc(C#N)cc5)n4c3)cc1)CC2 [Example 119, 4-(6-(4-(1-methyl-1,9-diazaspiro [5.5]undecane-9-carbonyl)phenyl)imidazo[1,2-a]pyridin-3-yl)benzonitrile]
< 1 | CN(C(=O)c1ccc(-c2ccc3ncc(-c4ccc(C#N)cc4)n3c2)cc1)c1ccncc1 [Example 122, 4-(3-(4-cyanophenyl)imidazo[1,2-a]pyridin-6-yl)-N-methyl-N-(pyridin-4-yl)benzamide]
< 1 | N#Cc1ccc(-c2cnc3ccc(-c4ccc(C(=O)N5CCC(CN)CC5)cc4)cn23)cc1 [Example 123, 4-(6-(4-(4-(aminomethyl)piperidine-1-carbonyl)phenyl)imidazo[1,2-a]pyridin-3-yl)benzonitrile]
< 1 | N#Cc1ccc(-c2cnc3ccc(-c4ccc(C(=O)N5CCC(CCN)CC5)cc4)cn23)cc1 [Example 124, 4-(6-(4-(4-(2-aminoethyl)piperidine-1-carbonyl)phenyl)imidazo[1,2-a]pyridin-3-yl)benzonitrile]
